Results taken from patent US6387397B1, “Polymerized liposomes targeted to M cells and useful for oral or mucosal drug delivery” (Massachusetts Institute of Technology, priority 1997, dated 2002).

Experiment: In vivo oral insulin delivery; blood glucose level
Parameters: species or system Balb/C mice
Settings: mice, single oral dose, 1 to 3.5 hours
Method: Balb/C mice of female sex were fasted for 12 hours before experiment. Each mouse wag savaged 200 μL of each preparation as described in Table 9.3. Food was restored immediately after administration. Blood samples for glucose determination was drawn from mouse tail vein under methoxyflurane anesthesia. Samples were drawn right before the administration (0 hour), as well as at 1, 2, 3 and 3.5 hours post administration of each preparation. Blood glucose level was measured using a One Touch® Profile Diabetes Tracking system (Lifescan, Milpitas, Calif.) with One Touch® Test strips, by applying blood to form a round drop which completely covered the test spot on the test strip. Readings (in mg/dL) were obtained from the meter indicating the blood glucose level detected.
Blood glucose level at zero hour was taken at 100 percent. Blood glucose levels after the oral administration were normalized by the level at zero hour, and the results were plotted in FIG. 9. […] This was due to the degradation of the unprotected peptide in the gastrointestinal tract by the digestive enzymes. […] This is consistent with the fact that unpolymerized liposomes are not stable in the gastrointestinal tract, where they are dissolved by the biological detergents. The dissolution results in the exposure of liposomal contents and therefore the loss of liposome protective functions. […]

Substance: insulin in solution: human insulin (regular) administered orally in solution
- change in blood glucose level after oral administration: did not result in any significant change
